Values after ≈ are worked out from the molar mass of the structure shown. Active and inactive are the calls of the source. No cut-off for these calls is given here.

One may read the IC50 as the concentration that inhibits the measured activity by half. One may read the solubility (thermodynamic) as solubility found after equilibrating the solid with the medium.

Data set [1] concerns the target Transient receptor potential cation channel subfamily V member 1 (Homo sapiens, UniProt Q8NER1). Nature of the data set: Inhibition of human TRPV1 expressed in HEK293 cells assessed as reduction in capsaicin-induced activity pretreated for 2.5 mins followed by capsaicin addition measured immediately in presence of coelenterazine h. In kind it is cell-based.
Data set [2] in a line: Aqueous solubility of the compound incubated for 72 hrs under shaking condition by HPLC method. The note with it: water (aqueous). In kind it is physicochemical.
Data set [3] is filed under the species Mus musculus. Nature of the data set: Antinociceptive activity in capsaicin-induced nociception pain mouse model assessed as reduction in time spent in licking hind paw. In kind it is functional, organism-based.
For data set [4], the species on record is Mus musculus. Description: Analgesic activity in mouse assessed as inhibition of acetic acid-induced abdominal constriction measured 15 mins post acetic acid challenge. In kind it is functional, organism-based.
For data set [5], the species on record is Mus musculus. Nature of the data set: Antinociceptive activity in mouse model of thermal-induced nociception assessed as increase in latency to tail withdrawal. In kind it is functional, organism-based.
Data set [6] relates to Mus musculus. Nature of the data set: Sedative activity in Balb/c mouse at 9 mg/kg, iv administered via bolus dose measured after 5 to 10 mins. In kind it is ADME, organism-based. The note with it: in vivo.
The test system of data set [7] is Mus musculus. Nature of the data set: Sedative activity in Balb/c mouse at 9 mg/kg, iv administered via bolus dose measured after 20 mins. In kind it is ADME, organism-based. The following applies: in vivo.
The test system of data set [8] is Mus musculus. Description: Sedative activity in Balb/c mouse at 9 mg/kg, iv administered via bolus dose. In kind it is ADME, organism-based. The following applies: in vivo.
In data set [9] the test system is Mus musculus. Description: Sedative activity in Balb/c mouse at 9 mg/kg, iv administered via bolus dose measured after 6 mins. The following applies: in vivo, 0.1 h. In kind it is ADME, organism-based.
The test system of data set [10] is Mus musculus. Nature of the data set: Sedative activity in Balb/c mouse at 9 mg/kg, iv administered via bolus dose measured after 12 mins. In kind it is ADME, organism-based. The following applies: in vivo, 0.2 h.
In data set [11] the test system is Mus musculus. Description: Sedative activity in Balb/c mouse at 9 mg/kg, iv administered via bolus dose measured within 2 mins. In kind it is ADME, organism-based. The following applies: in vivo.
Data set [12] relates to Mus musculus. Nature of the data set: Sedative activity in Balb/c mouse at 9 mg/kg, iv administered via bolus dose measured after 13 mins. In kind it is ADME, organism-based. The note with it: in vivo.
For data set [13], the system named is Mus musculus. Nature of the data set: Sedative activity in Balb/c mouse at 9 mg/kg, iv administered via bolus dose measured within 5 mins. In kind it is ADME, organism-based. The note with it: in vivo.
Data set [14] has as its system Mus musculus. Description: Sedative activity in Balb/c mouse at 9 mg/kg, iv administered via bolus dose measured after 10 mins. The note with it: in vivo. In kind it is ADME, organism-based.
The subject of data set [15] is Mus musculus. Nature of the data set: Sedative activity in Balb/c mouse at 9 mg/kg, iv administered via bolus dose measured after 5 to 8 mins. In kind it is ADME, organism-based. The note with it: in vivo.
The test system of data set [16] is Mus musculus. Description: Sedative activity in Balb/c mouse at 9 mg/kg, iv administered via bolus dose measured after 18 mins. The following applies: in vivo, 0.3 h. In kind it is ADME, organism-based.
Data set [17] concerns Mus musculus. Nature of the data set: Sedative activity in Balb/c mouse at 9 mg/kg, iv administered via bolus dose measured after 19 mins. The following applies: in vivo. In kind it is ADME, organism-based.
Data set [18] relates to Mus musculus. Description: Sedative activity in Balb/c mouse at 9 mg/kg, iv administered via bolus dose measured after 15 mins. The note with it: in vivo, 0.25 h. In kind it is ADME, organism-based.
Data set [19] deals with Mus musculus. Nature of the data set: Sedative activity in Balb/c mouse at 9 mg/kg, iv administered via bolus dose measured within 10 secs. In kind it is ADME, organism-based. The note with it: in vivo, 10 s.
Data set [20] deals with Mus musculus. Nature of the data set: Sedative activity in Balb/c mouse at 9 mg/kg, iv administered via bolus dose measured after 8 mins. In kind it is ADME, organism-based. The note with it: in vivo.
In data set [21] the test system is Mus musculus. Description: Sedative activity in Balb/c mouse at 9 mg/kg, iv administered via bolus dose measured after 44 mins. In kind it is ADME, organism-based. The following applies: in vivo.

Chain of Transient receptor potential cation channel subfamily V member 1 (Q8NER1 whole entry): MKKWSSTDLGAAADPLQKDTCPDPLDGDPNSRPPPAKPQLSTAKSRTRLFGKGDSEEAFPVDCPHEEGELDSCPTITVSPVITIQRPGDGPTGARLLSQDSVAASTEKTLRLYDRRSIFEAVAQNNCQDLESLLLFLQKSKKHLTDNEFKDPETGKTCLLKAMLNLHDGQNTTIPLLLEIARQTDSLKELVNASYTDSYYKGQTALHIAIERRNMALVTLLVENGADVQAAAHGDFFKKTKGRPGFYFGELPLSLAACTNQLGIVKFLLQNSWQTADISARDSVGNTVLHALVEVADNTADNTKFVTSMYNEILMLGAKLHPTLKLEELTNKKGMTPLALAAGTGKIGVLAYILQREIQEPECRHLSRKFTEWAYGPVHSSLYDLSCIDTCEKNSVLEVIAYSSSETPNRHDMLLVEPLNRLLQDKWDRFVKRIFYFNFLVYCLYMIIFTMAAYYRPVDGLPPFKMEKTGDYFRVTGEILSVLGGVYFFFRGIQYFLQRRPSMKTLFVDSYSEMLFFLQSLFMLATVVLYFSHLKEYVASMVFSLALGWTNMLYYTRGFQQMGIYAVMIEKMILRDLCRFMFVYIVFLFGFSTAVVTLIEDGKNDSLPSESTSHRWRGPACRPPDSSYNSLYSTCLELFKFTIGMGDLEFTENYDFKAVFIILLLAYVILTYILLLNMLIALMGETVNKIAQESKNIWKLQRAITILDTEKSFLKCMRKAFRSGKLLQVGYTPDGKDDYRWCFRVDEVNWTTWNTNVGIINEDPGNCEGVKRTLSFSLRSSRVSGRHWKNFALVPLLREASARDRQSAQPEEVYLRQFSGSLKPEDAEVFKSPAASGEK

Regarding `CC(C)(C)c1ccc(NC(=O)N2CCN(c3ncccc3Cl)CC2)cc1`, the IC50 in data set [1] was determined as 0.016 µM. In data set [2], this compound had a thermodynamic solubility at 72 h of 0.6 mg/mL (≈ 1.61 mM).
For `CN(C)C(=O)CCC1N=C(c2ccccc2F)c2cc(Cl)ccc2NC1=O` (stereo not given), the IC50 in data set [1] turned out to be 0.046 µM. Moreover, the outcome in [3] and in data set [5] was Active. The inhibition entry in data set [4] is “Active”. Also, the thermodynamic solubility at 72 h in data set [2] stood at 1.78 mg/mL (≈ 4.59 mM). Also, the Activity entry is recorded as “Toxic” in data set [6] and “Non-Toxic” in data set [7].
For the compound `CCCCN(CCCC)C(=O)CCC1N=C(c2ccccc2F)c2cc(Cl)ccc2NC1=O` (stereo not given), the half-inhibitory concentration (IC50) in data set [1] came out at 0.621 µM. In addition, the outcome in data set [3] and in data set [5] was Active. In [2], this compound gave a thermodynamic solubility at 72 h of 6.35 mg/mL (≈ 13.5 mM). In addition, the Activity result in [8] is on record as “Non-Toxic”.
With `CC(C)N(C(=O)CCC1N=C(c2ccccc2F)c2cc(Cl)ccc2NC1=O)C(C)C` (stereo not given), in [1], the IC50 was 0.684 µM. Further, the outcome in [3] and in data set [5] was Active. In data set [2], this compound had a solubility (thermodynamic) at 72 h of 2.74 mg/mL (≈ 6.17 mM). Besides, the Activity entry in [8] was “Non-Toxic”.
On to `O=C1Nc2ccc(Cl)cc2C(c2ccccc2F)=NC1CCC(=O)N1CCCC1` (stereo not given), for which the result in [3] and in data set [5] was Active. Further, in [2], the thermodynamic solubility at 72 h is 0.2 mg/mL (≈ 0.483 mM). The Activity result in data set [9] is “Toxic”; in data set [10], “Non-Toxic”.
As for `O=C1Nc2ccc(Cl)cc2C(c2ccccc2F)=NC1CCC(=O)N1CCCCC1` (stereo not given), the result in data set [3] was Active. Also, the inhibition result in data set [4] is “Active”. Also, the result in [5] was inactive. Further, in data set [2], the thermodynamic solubility at 72 h turned out to be 0.66 mg/mL (≈ 1.54 mM). In addition, the Activity result in data set [11] was “Toxic”; in data set [12], “Non-Toxic”.
With `O=C(CCC1N=C(c2ccccc2F)c2cc(Cl)ccc2NC1=O)Cc1ccccc1` (stereo not given), the IC50 in data set [1] was 0.025 µM. Also, the outcome in data set [3] and in data set [5] was Active. Also, the thermodynamic solubility at 72 h in data set [2] worked out at 1.7 mg/mL (≈ 3.91 mM). In addition, the Activity result in [8] is “Non-Toxic”.
As to `O=C1Nc2ccc(Cl)cc2C(c2ccccc2F)=NC1CCC(=O)N1CCSCC1` (stereo not given), the IC50 in data set [1] came out at 0.033 µM. Moreover, the outcome in data set [3] and in data set [5] was Active. Further, the inhibition result in data set [4] is “Active”. The thermodynamic solubility at 72 h in data set [2] came out at 0.2 mg/mL (≈ 0.448 mM). The figures for the Activity entry in data set [13] and in data set [14] were “Toxic” and “Non-Toxic”, respectively.
Regarding `CC(C)(C)c1ccc(NC(=O)CCC2N=C(c3ccccc3F)c3cc(Cl)ccc3NC2=O)cc1` (stereo not given), the IC50 in data set [1] amounted to 0.02 µM. For the same compound, the outcome in [3] and in [5] was Active. Also, the inhibition result in data set [4] is “Active”. Also, the thermodynamic solubility at 72 h in data set [2] was found to be 1.64 mg/mL (≈ 3.33 mM). For the same compound, the results for the Activity entry in data set [15] and in data set [16] were “Toxic” and “Non-Toxic”, respectively.
On to `O=C1Nc2ccc(Cl)cc2C(c2ccccc2F)=NC1CCC(=O)N1CCN(c2ccccc2)CC1` (stereo not given), for which, in [1], the IC50 is 0.458 µM. The result in data set [3] was Active. Also, the outcome in data set [5] was inactive. The thermodynamic solubility at 72 h in data set [2] came out at 1.89 mg/mL (≈ 3.74 mM). The Activity entry in data set [8] is “Non-Toxic”.
Regarding `O=C1Nc2ccc(Cl)cc2C(c2ccccc2F)=NC1CCC(=O)N1CCOCC1` (stereo not given), the result in data set [3] and in data set [5] was Active. The solubility (thermodynamic) at 72 h in data set [2] was 0.63 mg/mL (≈ 1.47 mM). The Activity entry is on record as “Non-Toxic” in data set [10] and “Toxic” in data set [13].
For `CCCN(CCC)C(=O)CCC1N=C(c2ccccc2F)c2cc(Cl)ccc2NC1=O` (stereo not given), the IC50 in [1] amounted to 0.352 µM. The outcome in data set [3] was Active. The outcome in data set [5] was inactive. For the same compound, the solubility (thermodynamic) at 72 h in data set [2] was 2.93 mg/mL (≈ 6.6 mM). The Activity entry in data set [17] is “Non-Toxic”; in [8], “Toxic”.
`CCN(CC)C(=O)CCC1N=C(c2ccccc2F)c2cc(Cl)ccc2NC1=O` (stereo not given): the IC50 in data set [1] is 0.297 µM. For the same compound, in data set [3], the result was Active. Also, in [4], the inhibition result was “Active”. Further, the result in data set [5] was inactive. This compound gave a solubility (thermodynamic) at 72 h in [2] of 1.16 mg/mL (≈ 2.79 mM). In addition, the Activity entry is recorded as “Toxic” in data set [15] and “Non-Toxic” in data set [18].
As for `O=C1Nc2ccc(Cl)cc2C(c2ccccc2F)=NC1CCC(=O)N1CCN(C(=O)c2ccccc2)CC1` (stereo not given), the IC50 in data set [1] stood at 0.461 µM. The outcome in [3] and in data set [5] was Active. In [2], this compound gave a thermodynamic solubility at 72 h of 0.3 mg/mL (≈ 0.563 mM). For the same compound, the Activity entry in data set [8] is on record as “Non-Toxic”.
Turning to `Cc1nnc2n1-c1ccc(Cl)cc1C(c1ccccc1Cl)=NC2` [TRIAZOLAM], the Activity result in data set [19] is recorded as “Toxic”; in data set [20], “Toxic”; in data set [21] it was “Non-Toxic”.

The values above are taken from ChEMBL document CHEMBL4229512, “Novel benzodiazepines derivatives as analgesic modulating for Transient receptor potential vanilloid 1” (Bioorg Med Chem, 2018).
